Data from patent publication US10584369B2, “Cell-based methods for measuring activity of a protein inhibitor” (priority 2013, dated 2020).

Tests used:
[1] = molecular target: T1, wild-type human CDK3 (Homo sapiens, UniProt Q00526); assay: Cell-based assay for CDK3 inhibition: fraction of Tomato+ MDA-MB-157 cells infected with wild-type CDK3-expressing lentivirus
T1 construct: Full-length cDNAs of wild-type human CDK3; expressed in transfected cells; host or cells: MDA-MB-157 breast carcinoma cells, lentiviral vector pHIV-dTomato
Procedure: MDA-MB-157 cells were cultured in RPMI with 10% FBS+PS 1× and Glu 1×.
In the experiment shown in FIG. 2, MDA-MB-157 cells were plated at 10^5 cells per well of a 6-well plate and infected with 1 ml of lentiviral stocks expressing wild-type CDK3 or E195D CDK3 mutant, with 1× polybrene solution. 24 hrs post-infection, the media were changed to virus-free polybrene-free media. 8 days post-infection (FIG. 2) or 23 days post-infection (FIG. 2), the samples were immediately analyzed for Tomato (red fluorescent marker carried in the vector) fluorescence using Becton-Dickinson LSRII flow cytometer. The fraction of the infected cells was defined as the percentage of Tomato+cells.
In this experiment, MDA-MB-157 cells were plated at 5×10^5 cells per P100 plate. Cells were infected with 5 ml of media supernatant containing the wild-type CDK3 lentivirus, with 1× polybrene solution. 24 hrs post-infection, the media were changed to virus-free polybrene-free media. 48 hrs post-infection, cells were replated into 24-well plates, at 25,000 cells per well. The culture media (1 ml volume) in each well contained the CDK3 inhibitor SNX9-1-20 at 2, 1.75, 1.5, 1.25, 1, 0.9, 0.75, 0.5, 0.35, 0.2 and 0 μM (DMSO 0.1%), in duplicates. […] 4′,6-diamidino-2-phenylindole (DAPI) was added to the final concentration of 1 μg/ml and the samples were analyzed for DAPI and Tomato fluorescence using the flow cytometer.

[2] = molecular target: T2, wild-type human CDK2 (Homo sapiens, UniProt P24941); assay: Cell-based assay for CDK2 inhibition: fraction of Tomato+ MDA-MB-157 cells infected with wild-type CDK2-expressing lentivirus
T2 construct: Full-length cDNAs of wild-type human CDK2 conjugated with a HA tag; expressed in transfected cells; host or cells: MDA-MB-157 breast carcinoma cells, lentiviral vector pHIV-dTomato
Procedure: MDA-MB-157 cells were cultured in RPMI with 10% FBS+PS 1X and Glu 1X.
In this experiment, MDA-MB-157 cells were plated at 5×10^5 cells per P100 plate. Cells were infected with 5 ml of media supernatant containing the wild-type of both CDK3 and CDK2 lentivirus, with 1 × polybrene solution. 24 hrs post-infection, the media were changed to virus-free polybrene-free media. 48 hrs post-infection, cells were replated into 24-well plates, at 25,000 cells per well. […] On day 5 after plating, the cells were harvested, centrifuged, suspended in RPMI and aliquoted at 200 μl per well into 96-well plates. 4′,6-diamidino-2-phenylindole (DAPI) was added to the final concentration of 1 μg/ml and the samples were analyzed for DAPI and Tomato fluorescence using the flow cytometer.

For `CC(C)[C@H](CO)Nc1nc(Nc2cccc(Cl)c2)c2ncn(C(C)C)c2n1` [Purvalanol-A, Purvalanol A], which “fraction of infected (Tomato+) cells, wild-type CDK3 lentivirus” value ([1]; 1.6 μM inhibitor, day 5 after plating, Example 2 (without inhibitor: 48.85% SNX9-1-20 experiment, 14.8% Purvalanol-A experiment)) is on record?
The value was 66.5%.

And the EC50 ([1]; Example 2, FIG. 4 and FIG. 5, day 5, read-out: concentration producing half-maximal effect on the increase in the fraction of cells infected with the wild-type CDK3 lentivirus)?
Its EC50 is 600 nM.

What about the “fraction of wild-type CDK2 infected (Tomato+) cells” value ([2]; 1.6 μM inhibitor, day 5 after plating, 25.5% in the absence of inhibitor, FIG. 5) of the same compound?
Its value is 65.25%.

What about the EC50 ([2]; Example 2, FIG. 5, day 5, read-out: concentration producing half-maximal effect on the increase in the fraction of infected cells (printed: wild-type CDK3 lentivirus; follows the CDK2 result)) of the same compound?
Its EC50 is 200 nM.
